Laboratory results reported in PubChem BioAssay AID1918954 (Molecular Pharmacology Branch, DTP, NCI, 2023).
Several values for one entry are separate records, joined by “and”; a condition that tells them apart may be missing. Equal values may be shown once.

System: MDA-MB-468 complex spheroids with HUVEC/MSC, viability
Assay: Anticancer human tumor MDA-MB-468 cell line growth inhibition;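 note: spheroids exposed to agents for seven days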
Conditions: for viability, T/C: stronger effect = lower value; active = viability on the fitted dose curve at most 10% of control; inactive = the rest
Description: Multicellular complex tumor spheroid response to LSD1 Inhibitor Iadademstat in combination with a variety of drugs and investigational agents in selected tumor cell lines
The current study was undertaken to assess response to LSD1 inhibitors in combination with standard-of-care drugs and investigational agents in solid tumor complex spheroid models as well as in the K-562 leukemia. Complex spheroids include a stromal component modeled by human endothelial cells (HUVEC) and fibroblasts modeled by human mesenchymal stem cells (MSCs). The concentration ranges selected for each drug and investigational agent were based upon clinically achievable concentrations if the clinical Cmax of the agent was known.
Compounds. The drugs and investigational agents used in this study are listed on Table 1. All of the agents used, including staurosporine (NSC755774) and gemcitabine (NSC613327), were obtained from the Developmental Therapeutics Program, NCI. FDA-approved anticancer drugs are available from the NCI at http://dtp.nci.nih.gov/branches/dscb/oncology_drugset_explanation.html. Drugs and investigational agents were >95% pure by proton nuclear magnetic resonance (NMR) and liquid chromatography/mass spectrometry (LC/MS). Stock solutions were prepared at 400x in DMSO, stored at -70 degrees C, and diluted in fresh medium prior to their use. The final concentration of DMSO in cell culture wells never exceeded 0.25% (v/v). The FDA-approved anticancer drug set is available from the Developmental Therapeutics Program at https://dtp.cancer.gov/organization/dscb/obtaining/available_plates.htm. All drugs and investigational agents were tested over a range starting from a high concentration at or near the clinical Cmax and decreasing in half-log increments. If the clinical Cmax for an agent had not been determined, the highest concentration tested was 10 microM.
Cell Lines. The patient-derived cancer cell (PDC) lines: 292921-168-R-J2-PDC, K24384-001-R-PDC, and 521955-158-R2-J5-PDC pancreatic carcinomas, 556581-035-R-J1 ovarian carcinoma, 324938-238-R-J1-PDC, 855422-203-R-J1-PDC and 883617-216-R-J1-PDC urothelial bladder carcinomas, 743489-274-T-PDC renal cell carcinoma, 138582-R-J1 Merkel cell tumor, K60290-347-R-J1 and K57222-313-R-J1-PDC glioblastomas, 653999-131-R-J2-PDC, LG0703-F948-PDC, and 349418-098-R-PDC non-small cell lung carcinomas, 885512-296-R-J2-PDC, 171881-019-R-J1-PDC breast carcinomas and 186277-243-T-J2-PDC and 233499-124-R-J2-PDC colon carcinomas were obtained from the NCI Patient-Derived Models Repository (PDMR, https://pdmr.cancer.gov). The established cell lines NCI/ADR-RES (RRID:CVCL_14520 and OVCAR-5 (RRID:CVCL_1628) ovarian carcinomas, 786-O (RRID:CVCL_1051) and A498 (RRID:CVCL_A498) renal cell carcinoma, NCI-H211 (ATCC, cat. CRL-5824; RRID:CVCL_1529), NCI-H196 (ATCC, cat. CRL-5823, RRID:CVCL_1509), SW 1271 (ATCC, cat. CRL-2177, RRID:CVCL_1716) and NCI-H1876 (ATCC, cat. CRL-5902, RRID:CVCL_1503) small cell lung carcinomas, MDA-MB-231 (RRID:CVCL_0062) and MDA-MB-468 (RRID:CVCL_0419)breast carcinomas (10-12). Pooled donor human umbilical vein endothelial cells (HUVEC, Lonza, cat. CC-2519) and human mesenchymal stem cells (hMSC, Lonza, cat. PT-2501) were purchased from Lonza (Walkersville, MD).
Cell Culture. All cells were maintained in an incubator at 37 degrees C and 5% CO2 with 95% humidity. The PDC lines were cultured according to standard operating procedures established by the NCI PDMR (https://pdmr.cancer.gov). Briefly all PDCs were thawed and cultured in Matrigel-coated flasks prepared with a working solution of 1X Ham's F-12 nutrient mix, without supplementation (Invitrogen, Waltham, MA, cat. 11765054), 100 U/mL penicillin-streptomycin (Invitrogen, cat. 15140122), and 2.5% Matrigel (Corning Inc., Corning, NY, cat. 354248) for the first three passages. […]

[1] = curve of first compound, second compound 0.1 µM
[2] = curve of first compound, second compound 0.316 µM
[3] = curve of first compound, second compound 1 µM
[4] = curve of first compound, second compound 3.16 µM
[5] = curve of first compound, second compound 10 µM
[6] = second compound 0.1 µM, first compound 0.0316 µM
[7] = second compound 0.1 µM, first compound 0.1 µM
[8] = second compound 0.1 µM, first compound 0.316 µM
[9] = second compound 0.1 µM, first compound 1 µM
[10] = second compound 0.316 µM, first compound 0.0316 µM
[11] = second compound 0.316 µM, first compound 0.1 µM
[12] = second compound 0.316 µM, first compound 0.316 µM
[13] = second compound 0.316 µM, first compound 1 µM
[14] = second compound 1 µM, first compound 0.0316 µM
[15] = second compound 1 µM, first compound 0.1 µM
[16] = second compound 1 µM, first compound 0.316 µM
[17] = second compound 1 µM, first compound 1 µM
[18] = second compound 3.16 µM, first compound 0.0316 µM
[19] = second compound 3.16 µM, first compound 0.1 µM
[20] = second compound 3.16 µM, first compound 0.316 µM
[21] = second compound 3.16 µM, first compound 1 µM
[22] = second compound 10 µM, first compound 0.0316 µM
[23] = second compound 10 µM, first compound 0.1 µM
[24] = second compound 10 µM, first compound 0.316 µM
[25] = second compound 10 µM, first compound 1 µM
[26] = second compound 0.1 µM, first compound 3.16 µM
[27] = second compound 0.1 µM, first compound 10 µM
[28] = second compound 0.316 µM, first compound 3.16 µM
[29] = second compound 0.316 µM, first compound 10 µM
[30] = second compound 1 µM, first compound 3.16 µM
[31] = second compound 1 µM, first compound 10 µM
[32] = second compound 3.16 µM, first compound 3.16 µM
[33] = second compound 3.16 µM, first compound 10 µM
[34] = second compound 10 µM, first compound 3.16 µM
[35] = second compound 10 µM, first compound 10 µM

CC1COCCN1c1cc(-c2ccnn2C)c2ccnc(-c3ccn[nH]3)c2n1 (stereo unspecified) + NC1CC1c1ccc(-c2cccc(O)c2)cc1
inactive: viability, T/C (second compound 0.1 µM, first compound 0.00316 µM) 40% | viability, T/C (second compound 0.1 µM, first compound 0.01 µM) 30.1% | viability, T/C [6] 16.7% | viability, T/C (second compound 0.316 µM, first compound 0.00316 µM) 37.9% | viability, T/C (second compound 0.316 µM, first compound 0.01 µM) 27.4% | viability, T/C [10] 17% | viability, T/C (second compound 1 µM, first compound 0.00316 µM) 29.2% | viability, T/C (second compound 1 µM, first compound 0.01 µM) 28% | viability, T/C [14] 15.5% | viability, T/C (second compound 3.16 µM, first compound 0.00316 µM) 27.4% | viability, T/C (second compound 3.16 µM, first compound 0.01 µM) 22.4% | viability, T/C [18] 12.3% | viability, T/C (second compound 10 µM, first compound 0.00316 µM) 20.3% | viability, T/C (second compound 10 µM, first compound 0.01 µM) 17.1% | viability, T/C [22] 10.4%
active: viability, T/C [7] 7.91% | viability, T/C [8] 5.23% | viability, T/C [9] 2.24% | viability, T/C [11] 7.28% | viability, T/C [12] 4.97% | viability, T/C [13] 2.27% | viability, T/C [15] 7.91% | viability, T/C [16] 5.09% | viability, T/C [17] 2.01% | viability, T/C [19] 7.5% | viability, T/C [20] 5.19% | viability, T/C [21] 2.2% | viability, T/C [23] 6.9% | viability, T/C [24] 5.95% | viability, T/C [25] 2.01%
< 3.16 nM: IC50 [1] | IC50 [2] | IC50 [3] | IC50 [4] | IC50 [5]

CC1COCCN1c1cc(C2(S(C)(=N)=O)CC2)nc(-c2ccnc3[nH]ccc23)n1 (stereo unspecified)
282 nM and 835 nM: IC50 (curve of compound)
inactive: viability, T/C (compound 0.0316 µM) 101% and 78.9% | viability, T/C (compound 0.1 µM) 67.4% and 88.1% | viability, T/C (compound 0.316 µM) 50.6% and 66.4% | viability, T/C (compound 1 µM) 30.4% and 46% | viability, T/C (compound 3.16 µM) 21.9% and 24.2% | viability, T/C (compound 10 µM) 11.6% and 9.82%

NS(=O)(=O)OCC1CC(n2ccc3c(NC4CCc5ccccc54)ncnc32)CC1O (stereo unspecified)
active: viability, T/C (compound 0.3 µM) 12.9% and 5.49% | viability, T/C (compound 0.949 µM) 6.45% and 3.24% | viability, T/C (compound 3 µM) 3.84% and 2.08%
inactive: viability, T/C (compound 0.00949 µM) 67.5% and 55.7% | viability, T/C (compound 0.03 µM) 52.1% and 28.4% | viability, T/C (compound 0.0949 µM) 19.3% and 11.1%
31.5 nM and 12 nM: IC50 (curve of compound)

COc1ccc([C@@H](O)c2cc(-c3ncnc4cc(N5CCOCC5)ccc34)c(F)cc2Cl)nn1
14% and 6.59%: viability, T/C (compound 10 µM)
1480 nM and 1130 nM: IC50 (curve of compound)
inactive: viability, T/C (compound 0.0316 µM) 91.7% and 90.3% | viability, T/C (compound 0.1 µM) 86.8% and 90.4% | viability, T/C (compound 0.316 µM) 82.5% and 71.8% | viability, T/C (compound 1 µM) 58.3% and 51% | viability, T/C (compound 3.16 µM) 32.1% and 29.9%

O=C(c1cc(Cc2n[nH]c(=O)c3ccccc23)ccc1F)N1CCN(C(=O)C2CC2)CC1 + NC1CCC(NC2CC2c2ccccc2)CC1
812 nM: IC50 [2]
775 nM: IC50 [1]
411 nM: IC50 [5]
786 nM: IC50 [3]
909 nM: IC50 [4]
inactive: viability, T/C [6] 89.5% | viability, T/C [7] 103% | viability, T/C [8] 76.2% | viability, T/C [9] 42.6% | viability, T/C [26] 19.3% | viability, T/C [27] 13.6% | viability, T/C [10] 93.8% | viability, T/C [11] 87.8% | viability, T/C [12] 71.4% | viability, T/C [13] 47.7% | viability, T/C [28] 18.2% | viability, T/C [29] 13.8% | viability, T/C [14] 90.2% | viability, T/C [15] 80.8% | viability, T/C [16] 71.7% | viability, T/C [17] 45.2% | viability, T/C [30] 21% | viability, T/C [31] 15.1% | viability, T/C [18] 68.4% | viability, T/C [19] 75.3% | viability, T/C [20] 77% | viability, T/C [21] 47.9% | viability, T/C [32] 20.8% | viability, T/C [33] 17% | viability, T/C [22] 73.9% | viability, T/C [23] 65.8% | viability, T/C [24] 53.4% | viability, T/C [25] 38.9% | viability, T/C [34] 23.6% | viability, T/C [35] 18.6%

CC1COCCN1c1cc(C2(S(C)(=N)=O)CC2)nc(-c2ccnc3[nH]ccc23)n1 (stereo unspecified) + NC1CCC(NC2CC2c2ccccc2)CC1
330 nM: IC50 [1]
450 nM: IC50 [2]
inactive: viability, T/C [6] 103% | viability, T/C [7] 73.1% | viability, T/C [8] 49.5% | viability, T/C [9] 34.9% | viability, T/C [26] 21.3% | viability, T/C [27] 10.2% | viability, T/C [10] 76.9% | viability, T/C [11] 72.2% | viability, T/C [12] 55.8% | viability, T/C [13] 35.1% | viability, T/C [28] 21.2% | viability, T/C [29] 10.6% | viability, T/C [14] 74.1% | viability, T/C [15] 71% | viability, T/C [16] 45.4% | viability, T/C [17] 34.4% | viability, T/C [30] 25.8% | viability, T/C [31] 11.3% | viability, T/C [18] 75.5% | viability, T/C [19] 74.6% | viability, T/C [20] 48.9% | viability, T/C [21] 36.7% | viability, T/C [32] 21.2% | viability, T/C [33] 12.4% | viability, T/C [22] 63.9% | viability, T/C [23] 54.7% | viability, T/C [24] 48.2% | viability, T/C [25] 35.2% | viability, T/C [34] 21.1%
221 nM: IC50 [5]
394 nM: IC50 [4]
326 nM: IC50 [3]
active: viability, T/C [35] 8.95%
